*1 amine or outer side, *2 acyl side, *3 side chain or, on linkers, in order; H or OH if unused. Where a SMILES comes first, the peptide text is derived from it. Side-chain parts run from the residue outwards. [ ]: non-standard residue; d: D form. The star is where a group is joined. γGlu = O=C(O)[C@H](CCC(=O)[*:2])N[*:1]; Stearoyl = CCCCCCCCCCCCCCCCCC(=O)*; Palmitoyl = CCCCCCCCCCCCCCCC(=O)*; Nle = CCCC[C@H](N)C(=O)O; AEEA = NCCOCCOCC(=O)O; Aib = CC(C)(N)C(=O)O

For one series, the target named is T1, RXFP1 (Homo sapiens, UniProt Q9HBX9).
T1 construct: OVCAR5 cells expressing endogenous RXFP1; endogenous in cells; host or cells: OVCAR5 cells
T1 sequence (Q9HBX9 1-757): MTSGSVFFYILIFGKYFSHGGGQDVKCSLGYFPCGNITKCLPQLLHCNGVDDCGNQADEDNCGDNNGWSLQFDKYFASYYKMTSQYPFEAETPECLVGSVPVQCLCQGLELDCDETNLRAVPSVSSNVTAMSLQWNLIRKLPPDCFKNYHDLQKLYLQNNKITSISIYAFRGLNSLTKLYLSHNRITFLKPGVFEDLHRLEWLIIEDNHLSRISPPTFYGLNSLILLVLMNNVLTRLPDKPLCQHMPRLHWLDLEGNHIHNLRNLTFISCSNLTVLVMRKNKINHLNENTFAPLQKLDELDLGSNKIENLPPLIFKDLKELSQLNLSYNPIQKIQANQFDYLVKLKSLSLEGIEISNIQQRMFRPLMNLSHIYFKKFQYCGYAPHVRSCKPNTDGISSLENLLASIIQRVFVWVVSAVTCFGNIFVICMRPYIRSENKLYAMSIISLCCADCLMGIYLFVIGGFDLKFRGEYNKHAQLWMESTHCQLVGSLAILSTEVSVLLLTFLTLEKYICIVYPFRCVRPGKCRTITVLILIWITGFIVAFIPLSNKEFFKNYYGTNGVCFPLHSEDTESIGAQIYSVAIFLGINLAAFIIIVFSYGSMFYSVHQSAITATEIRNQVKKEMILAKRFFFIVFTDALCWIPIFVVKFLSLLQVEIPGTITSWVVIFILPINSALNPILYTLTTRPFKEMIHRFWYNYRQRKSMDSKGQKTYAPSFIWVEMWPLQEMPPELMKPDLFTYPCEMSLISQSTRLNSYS
As to the kind of experiment: OVCAR5 cAMP assay (HTRF), RXFP1 agonist activity. It counts as cell-based. Conditions: for Emax: OVCAR-5, maximal cAMP relative to H2-relaxin maximum (100%), read-out: EMax, OVCAR 5 cells (cAMP). In outline:
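OVCAR5 cells (endogenous RXFP1) pretreated 40 min at 37° C with 1 mM IBMX, then exposed to peptides in serum-free medium for 30 min at 37° C. Lysate cAMP read by HTRF; EC50 from variable-slope sigmoidal fit; Emax as % of H2-relaxin maximal cAMP in same run.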
For orientation: cAMP levels reflect the balance of adenylyl cyclase and phosphodiesterase activity.

The nature of series [1]: Stability testing of peptides in human plasma or blood. As to conditions: 37° C.; for Human Plasma stability % remaining T = 0: human plasma or blood, T = 0 (reference), 5 μM. It counts as in vitro ADME. The procedure: (§1) Prior to the testing of stability in plasma (or blood) of a peptide batch, its purity (HPLC-UV) was determined.
(§2) Rat and Human plasma: anti-coagulant sodium or lithium heparin.
(§3) Rat and Human blood: anti-coagulant sodium or lithium heparin. • Stock solution: • 100 μM solution of study compound in 50 mM Phosphate buffer pH 7.4. • 950 μL plasma (or blood) was pre-incubated for 5 min at 37° C. 50 μL of compound stock solution was added. Final compound concentration=5 μM. Vortex and transfer 1504, plasma (or blood) into an Eppendorf for each time point. The time points […] were carried out in duplicate for each species.
(§4) After incubation 150 μL, plasma (or blood) was extracted with 600 μL, Acetonitrile containing with 1% TFA. Then, vortexed and centrifuged 10 min at 14600 rpm. 200 μL supernatant was dried under N2. The sample was reconstituted in 200 μL of H2O/CH3CN 98/2+0.1% FA+50 ng/ml Labetalol and analyzed using the analytical system used in solubility and stability studies.
(§5) For determination of the amount of the remaining peptide, the peak areas of the target compound at t0 and each time point […] were compared, resulting in “% remaining peptide”, following the equation: % remaining peptide=[(peak area peptide time)×100]/peak area peptide t0. The stability is expressed as “% remaining peptide”.

A short description of series [2]: Stability testing of peptides in rat plasma or blood. Type of series: in vitro ADME. As to conditions: 37° C.; for Rat plasma stability % remaining T = 0: rat plasma or blood, T = 0 (reference), 5 μM. The method, then: as §1, §2, §3, §4, §5
The nature of series [3]: Pharmacokinetic (PK) determination after i.v. or s.c. administration to rats. Conditions: Sprague Dawley, Rat PK; for C0 / half-life: iv, 1 mg/kg i.v.; for C0: extrapolated plasma concentration at t=0, read-out: C0; for half-life / Cmax / Tmax / bioavailability: plasma; for half-life: read-out: T½ (converted); for Cmax / Tmax: sc, 3 mg/kg s.c.; for bioavailability: subcutaneous, 3 mg/kg s.c. vs 1 mg/kg i.v., dose-corrected AUC ratio. Type of series: in vivo, Sprague Dawley rats. The method in brief:
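Sprague Dawley rats received peptide in PBS at 1 mg/kg i.v. or 3 mg/kg s.c., dose corrected for salts, solvent and purity. Plasma analysed by LC/MS after protein precipitation; non-compartmental PK, BLQ values set to zero, F% as dose-corrected s.c./i.v. AUC ratio.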

The EC50 is the concentration giving half of the maximal effect. By Emax is commonly meant the size of the effect at its maximum, as opposed to the concentration needed. What is called Cmax is the maximum level reached in the sampled fluid or tissue. As usually defined, the Tmax is the time at which the peak concentration occurs. Broadly, the bioavailability is the share of a dose that reaches the circulation, judged against a reference dose that is usually intravenous. Consider `CCCCCCCCCCCCCCCC(=O)N[C@@H](CCC(=O)NCCCC[C@H](NC(=O)CC[C@H](NC(=O)CC[C@H](NC(=O)CC[C@H](NC(=O)COCCOCCNC(=O)COCCOCCNC(=O)COCCOCCNC(=O)[C@H](CCCCN)NC(=O)[C@H](CCCCN)NC(=O)[C@H](CCCCN)NC(=O)[C@H](CCCNC(=N)N)NC(=O)C(C)(C)NC(=O)[C@H](CO)NC(=O)[C@H](Cc1c[nH]c2ccccc12)NC(=O)[C@@H](NC(=O)[C@H](CO)NC(=O)[C@H](CCCC)NC(=O)CNC(=O)[C@H](CCC(=O)O)NC(=O)C(C)(C)NC(=O)C(C)(C)NC(=O)[C@@H](NC(=O)[C@H](CCC(N)=O)NC(=O)[C@H](C)NC(=O)[C@H](CCCNC(=N)N)NC(=O)[C@@H](NC(=O)[C@H](CCCCN)NC(=O)[C@H](CCC(=O)O)NC(=O)[C@H](CCCNC(=N)N)NC(=O)CNC(=O)[C@H](CCC(=O)O)NC(=O)[C@H](CC(C)C)NC(C)=O)C(C)C)[C@@H](C)CC)[C@@H](C)O)C(=O)O)C(=O)O)C(=O)O)C(N)=O)C(=O)O` [compound 107] (Ac-LEGREKVRAQI[Aib][Aib]EG[Nle]STWS[Aib]RKKK[AEEA][AEEA][AEEA][γGlu][γGlu][γGlu]K([γGlu-Palmitoyl])-NH2), for which, at RXFP1 (OVCAR5 cells, cAMP HTRF, read-out: EC50 (nM), OVCAR 5 cells (cAMP)), the EC50 was determined as 0.63 nM. Besides, the Emax on RXFP1 is 85%. Moreover, the “Human Plasma stability % remaining T = 0” value in series [1] was 100%. In addition, the amount remaining at 1 h, 5 µM in series [1] (human plasma, 1 h, read-out: Human Plasma stability % remaining 1 h) amounted to 98%. Moreover, the share remaining at 4 h, 5 µM in series [1] (human plasma, 4 h, read-out: Human Plasma stability % remaining 4 h) was determined as 106%. In addition, in series [2], the “Rat plasma stability % remaining T = 0” value came to 100%. Also, the amount remaining at 1 h, 5 µM in series [2] (rat plasma, read-out: Rat plasma stability % remaining 1 h) is 93%. Further, in series [2] (rat plasma, read-out: Rat plasma stability % remaining 4 h), the amount remaining at 4 h, 5 µM was determined as 110%. Also, in series [3], the C0 is 2600 nM, the half-life is 2.5 h, the highest level (Cmax) was 1600 nM and the Tmax stood at 8 h. In addition, the bioavailability in series [3] came out at 27%.

In the case of `CCCCCCCCCCCCCCCCCC(=O)N[C@@H](CCC(=O)N[C@@H](CCC(=O)N[C@@H](CCC(=O)NCCCC[C@H](NC(=O)[C@H](CCCCN)NC(=O)[C@H](CCCNC(=N)N)NC(=O)C(C)(C)NC(=O)[C@H](CO)NC(=O)[C@H](Cc1c[nH]c2ccccc12)NC(=O)[C@@H](NC(=O)[C@H](CO)NC(=O)[C@H](CCCC)NC(=O)CNC(=O)[C@H](CCC(=O)O)NC(=O)C(C)(C)NC(=O)C(C)(C)NC(=O)[C@@H](NC(=O)[C@H](CCC(N)=O)NC(=O)[C@H](C)NC(=O)[C@H](CCCNC(=N)N)NC(=O)[C@@H](NC(=O)[C@H](CCCCN)NC(=O)[C@H](CCC(=O)O)NC(=O)[C@H](CCCNC(=N)N)NC(=O)CNC(=O)[C@H](CCC(=O)O)NC(=O)[C@H](CC(C)C)NC(C)=O)C(C)C)[C@@H](C)CC)[C@@H](C)O)C(N)=O)C(=O)O)C(=O)O)C(=O)O` [compound 9] (Ac-LEGREKVRAQI[Aib][Aib]EG[Nle]STWS[Aib]RKK([γGlu-γGlu-γGlu-Stearoyl])-NH2), the Emax on RXFP1 is 95%. Further, the “Human Plasma stability % remaining T = 0” value in series [1] stood at 100%. Besides, the “Rat plasma stability % remaining T = 0” value in series [2] is listed as 100%. Further, the share remaining at 1 h, 5 µM in series [2] (whole blood, rat blood, read-out: Rat stability in blood % remaining 1 h) was determined as 84%. Also, the amount remaining at 4 h, 5 µM in series [2] (whole blood, rat blood, read-out: Rat stability in blood % remaining 4 h) was found to be 92%. Also, in series [3], the C0 is 4990 nM, the half-life was 3 h, the peak level (Cmax) was 2320 nM and the Tmax was determined as 6 h. In addition, in series [3], the bioavailability is 42%.

(Values after patent US10988523B2, “Modified lipidated Relaxin B chain peptides and their therapeutic use” (Sanofi, priority 2018, dated 2021).)
